Test results: paper doi:10.1101/2021.09.30.462449v1 (biorxiv, 2021)

What follows are compounds tested against PL^pro (Severe acute respiratory syndrome coronavirus 2, UniProt P0DTD1) (assay: FRET peptide cleavage assay).
Assay type: biochemical
Compound `COc1ccc2nc3cc(Cl)ccc3c(Nc3ccc(O)cc3)c2c1` [compound 2, 4-[(6-chloro-2-methoxyacridin-9-yl)amino]phenol] has an IC50 greater than 20 µM. Work on `COc1ccc2nc3cc(Cl)ccc3c(N3CCOCC3)c2c1` [compound 7, 6-chloro-2-methoxy-9-morpholin-4-ylacridine] yielded an IC50 greater than 20 µM. Compound `COc1ccc2nc3cc(Cl)ccc3c(Nc3cc(CN4CCCC4)c(O)c(CN4CCCC4)c3)c2c1` [compound 5, 4-[(6-chloro-2-methoxyacridin-9-yl)amino]-2,6-bis(pyrrolidin-1-ylmethyl)phenol] has an IC50 of 2.44 ± 0.53 µM. `COc1ccc2nc3cc(Cl)ccc3c(Nc3cc(CN(C)C)c(O)c(CN(C)C)c3)c2c1` [compound 3, 4-[(6-chloro-2-methoxyacridin-9-yl)amino]-2,6-bis[(dimethylamino)methyl]phenol] showed an IC50 of 3.28 ± 0.4 µM. Work on `COc1ccc2nc3cc(Cl)ccc3c(Nc3ccc(O)c(CN4CCCC4)c3)c2c1` [compound 4, 4-[(6-chloro-2-methoxyacridin-9-yl)amino]-2-(pyrrolidin-1-ylmethyl)phenol] yielded an IC50 of 2.56 ± 0.28 µM. `N#Cc1c(N2CCOCC2)ncc2c(=O)c3ccccc3[nH]c12` [compound 10, 3-morpholin-4-yl-10-oxo-5,10-dihydrobenzo[b]-1,6-naphthyridine-4-carbonitrile] was tested, and the IC50 was greater than 20 µM. Work on `N#Cc1c(N2CCOCC2)ncc2cc3ccccc3nc12` [compound 9, 3-morpholin-4-ylbenzo[b]-1,6-naphthyridine-4-carbonitrile] yielded an IC50 greater than 20 µM. Work on `COc1ccc2nc3cc(Cl)ccc3c(O)c2c1` [compound 6, 6-chloro-2-methoxyacridin-9-ol] yielded an IC50 greater than 20 µM.
